US20080188528A1, “Modulators of C3a receptor and methods of use thereof” (priority 2006, published 2008)
Structures can show the parent of a compound that is named as a salt.

Each compound was assayed against T1, human C3a receptor (C3aR) (Homo sapiens, UniProt Q16581) (assay: Inhibition of human [125I]-C3a binding to human C3a receptor (SPA, membranes of HEK293 cells expressing recombinant C3aR)). Details: 0.1 nM [125I]-C3a, 3 hours at room temperature; Table 6.
T1 construct: expressed in transfected cells
T1 sequence (Q16581 1-482): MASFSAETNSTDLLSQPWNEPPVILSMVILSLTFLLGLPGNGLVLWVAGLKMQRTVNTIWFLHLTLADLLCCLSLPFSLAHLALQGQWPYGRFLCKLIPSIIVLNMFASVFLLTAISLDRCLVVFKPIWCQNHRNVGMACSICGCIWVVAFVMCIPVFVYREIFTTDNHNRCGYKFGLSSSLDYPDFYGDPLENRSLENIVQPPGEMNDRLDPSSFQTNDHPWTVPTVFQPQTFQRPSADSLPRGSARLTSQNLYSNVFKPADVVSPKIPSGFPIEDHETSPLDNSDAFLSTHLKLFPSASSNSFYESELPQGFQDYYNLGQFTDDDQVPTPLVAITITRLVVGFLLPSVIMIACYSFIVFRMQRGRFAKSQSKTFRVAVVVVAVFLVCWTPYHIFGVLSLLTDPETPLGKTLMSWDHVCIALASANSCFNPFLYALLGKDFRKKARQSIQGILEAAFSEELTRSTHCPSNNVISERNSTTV
Outline: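 HEK293 C3aR membranes were pre-coupled to WGA SPA beads and incubated 3 h at room temperature with 0.1 nM [125I]-C3a in HEPES pH 7.4 buffer containing 0.25% BSA and 0.2% CHAPS, DMSO ≤1%. Nonspecific binding was defined with 1 μM unlabeled C3a. IC50 came from nonlinear least-squares fitting.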

Compound | IC50
CC(=N)NCCC[C@H](NC(=O)c1cccn(Cc2ccccc2C(F)(F)F)c1=O)C(=O)O [Compound 107, (2S)-5-(ethanimidoylamino)-2-[({2-oxo-1-[2-(trifluoromethyl)benzyl]-1,2-dihydropyridin-3-yl}carbonyl)amino]pentanoic acid•TFA] | 500 to 20000 nM
CC(=N)NCCC[C@H](NC(=O)c1ccc(C(c2ccccc2)c2ccccc2)cc1)C(=O)O [Compound 108, (2S)-2-({[4-(Diphenylmethyl)phenyl]carbonyl}amino)-5-(ethanimidoylamino)pentanoic acid] | 500 to 20000 nM
CC(=N)NCCC[C@H](NC(=O)c1cccn(Cc2ccc(C(F)(F)F)cc2)c1=O)C(=O)O [Compound 113, (2S)-5-(ethanimidoylamino)-2-[({2-oxo-1-[4-(trifluoromethyl)benzyl]-1,2-dihydropyridin-3-yl}carbonyl)amino]pentanoic acid•TFA] | 500 to 20000 nM
CCCC(=N)NCCC[C@H](NC(=O)c1ccc(C(c2ccccc2)c2ccccc2)s1)C(=O)O [Compound 118, (2S)-5-(butanimidoylamino)-2-({[5-(diphenylmethyl)thiophen-2-yl]carbonyl}amino)pentanoic acid•TFA] | 500 to 20000 nM
N=C(NCCC[C@H](NC(=O)c1ccc(C(c2ccccc2)c2ccccc2)s1)C(=O)O)c1ccccn1 [Compound 119, (2S)-2-({[5-(diphenylmethyl)thiophen-2-yl]carbonyl}amino)-5-{[imino(pyridin-2-yl)methyl]amino}pentanoic acid•TFA] | 500 to 20000 nM
N=C(NCCC[C@H](NC(=O)c1ccc(C(c2ccccc2)c2ccccc2)s1)C(=O)O)c1ccccc1 [Compound 120, (2S)-2-({[5-(diphenylmethyl)thiophen-2-yl]carbonyl}amino)-5-{[imino(phenyl)methyl]amino}pentanoic acid•TFA] | 500 to 20000 nM
N=C(NCCC[C@H](NC(=O)c1ccc(C(c2ccccc2)c2ccccc2)s1)C(=O)O)C1CC1 [Compound 121, (2S)-5-{[cyclopropyl(imino)methyl]amino}-2-({[5-(diphenylmethyl)thiophen-2-yl]carbonyl}amino)pentanoic acid•TFA] | 500 to 20000 nM
COc1ccn(C(c2ccccc2)c2ccccc2)c(=O)c1C(=O)N[C@@H](CCCNC(C)=N)C(=O)O [Compound 122, (2S)-2-({[1-(diphenylmethyl)-4-methoxy-2-oxo-1,2-dihydropyridin-3-yl]carbonyl}amino)-5-(ethanimidoylamino)pentanoic acid•TFA] | 500 to 20000 nM
CCOC(=O)CC(=N)NCCC[C@H](NC(=O)c1ccc(C(c2ccccc2)c2ccccc2)s1)C(=O)O [Compound 123, (2S)-2-({[5-(diphenylmethyl)thiophen-2-yl]carbonyl}amino)-5-[(3-ethoxy-3-oxopropanimidoyl)amino]pentanoic acid•TFA] | 500 to 20000 nM
CC(=N)NCCC[C@H](NC(=O)c1ccc(C(c2ccc(C)cc2)c2ccc(C)cc2)s1)C(=O)O [Compound 124, (2S)-2-[({5-[bis(4-methylphenyl)methyl]thiophen-2-yl}carbonyl)amino]-5-(ethanimidoylamino)pentanoic acid•TFA] | 500 to 20000 nM
CC(=N)NCCC[C@H](NC(=O)c1ccc(C(c2ccccc2Cl)c2ccccc2Cl)s1)C(=O)O [Compound 126, (2S)-2-[({5-[bis(2-chlorophenyl)methyl]thiophen-2-yl}carbonyl)amino]-5-(ethanimidoylamino)pentanoic acid•TFA] | 500 to 20000 nM
CC(=N)NCCC[C@H](NC(=O)c1ccc(C(c2cccc(C(F)(F)F)c2)c2cccc(C(F)(F)F)c2)s1)C(=O)O [Compound 130, (2S)-2-{[(5-{Bis[3-(trifluoromethyl)phenyl]methyl}thiophen-2-yl)carbonyl]amino}-5-(ethanimidoylamino)pentanoic acid] | 500 to 20000 nM
CC(C)C(=N)NCCC[C@H](NC(=O)c1ccc(C(c2ccccc2)c2ccccc2)s1)C(=O)O [Compound 132, (2S)-2-({[5-(diphenylmethyl)thiophen-2-yl]carbonyl}amino)-5-[(2-methylpropanimidoyl)amino]pentanoic acid•TFA] | 500 to 20000 nM
N=CNCCC[C@H](NC(=O)c1ccc(C(c2ccccc2)c2ccccc2)s1)C(=O)O [Compound 133, (2S)-2-({[5-(diphenylmethyl)thiophen-2-yl]carbonyl}amino)-5-[(iminomethyl)amino]pentanoic acid•TFA] | 50 to 500 nM
CC(=N)Nc1cccc([C@H](NC(=O)c2ccc(C(c3ccccc3)c3ccccc3)s2)C(=O)O)c1 [Compound 134, (2S)-({[5-(Diphenylmethyl)thiophen-2-yl]carbonyl}amino)[3-(ethanimidoylamino)phenyl]ethanoicacid] | 500 to 20000 nM

Results, then the compound that gave them:

IC50 | Compound
50 to 500 nM | O=C(N[C@@H](Cc1c[nH]c2ccccc12)C(=O)O)c1cccn(C(c2ccccc2)c2ccccc2)c1=O [Compound 105, (2S)-2-({[1-(Diphenylmethyl)-2-oxo-1,2-dihydropyridin-3-yl]carbonyl}amino)-3-(1H-indol-3-yl)propanoicacid]
50 to 500 nM | CC(=N)NCCC[C@H](NC(=O)c1cccn(Cc2cccc(C(F)(F)F)c2)c1=O)C(=O)O [Compound 106, (2S)-5-(ethanimidoylamino)-2-[({2-oxo-1-[3-(trifluoromethyl)benzyl]-1,2-dihydropyridin-3-yl}carbonyl)amino]pentanoic acid•TFA]
50 to 500 nM | CC(=N)NCCC[C@H](NC(=O)c1cccn(Cc2cccc(Br)c2)c1=O)C(=O)O [Compound 109, (2S)-2-({[1-(3-bromobenzyl)-2-oxo-1,2-dihydropyridin-3-yl]carbonyl}amino)-5-(ethanimidoylamino)pentanoic acid•TFA]
50 to 500 nM | CC(=N)NCCC[C@H](NC(=O)c1cccn(Cc2ccc(Br)cc2)c1=O)C(=O)O [Compound 110, (2S)-2-({[1-(4-bromobenzyl)-2-oxo-1,2-dihydropyridin-3-yl]carbonyl}amino)-5-(ethanimidoylamino)pentanoic acid•TFA]
< 50 nM | N=C(N)NC(=O)CC[C@H](NC(=O)c1ccc(C(c2ccccc2)c2ccccc2)cc1)C(=O)O [Compound 111, (2S)-5-Carbamimidamido-2-({[4-(diphenylmethyl)phenyl]carbonyl}amino)-5-oxopentanoic acid]
50 to 500 nM | CC(=N)NCCC[C@H](NC(=O)c1cccc(C(c2ccccc2)c2ccccc2)c1)C(=O)O [Compound 112, (2S)-2-({[3-(Diphenylmethyl)phenyl]carbonyl}amino)-5-(ethanimidoylamino)pentanoic acid]
50 to 500 nM | CC(=N)NCCC[C@H](NC(=O)c1cccn(Cc2cccc(I)c2)c1=O)C(=O)O [Compound 114, (2S)-5-(ethanimidoylamino)-2-({[1-(3-iodobenzyl)-2-oxo-1,2-dihydropyridin-3-yl]carbonyl}amino)pentanoic acid•TFA]
< 50 nM | CC(=N)NCCC[C@H](NC(=O)c1cccn(Cc2cc(Br)cc(Br)c2)c1=O)C(=O)O [Compound 115, (2S)-2-({[1-(3,5-dibromobenzyl)-2-oxo-1,2-dihydropyridin-3-yl]carbonyl}amino)-5-(ethanimidoylamino)pentanoic acid•TFA]
< 50 nM | CC(=N)NCCC[C@H](NC(=O)c1cccn(Cc2cc(Cl)cc(Cl)c2)c1=O)C(=O)O [Compound 116, (2S)-2-({[1-(3,5-dichlorobenzyl)-2-oxo-1,2-dihydropyridin-3-yl]carbonyl}amino)-5-(ethanimidoylamino)pentanoic acid•TFA]
50 to 500 nM | CC(=N)NCCC[C@H](NC(=O)c1cccn(Cc2cc(F)cc(F)c2)c1=O)C(=O)O [Compound 117, (2S)-2-({[1-(3,5-difluorobenzyl)-2-oxo-1,2-dihydropyridin-3-yl]carbonyl}amino)-5-(ethanimidoylamino)pentanoic acid•TFA]
50 to 500 nM | CC(=N)NCCC[C@H](NC(=O)c1ccc(C(c2ccc(Cl)cc2)c2ccc(Cl)cc2)s1)C(=O)O [Compound 125, (2S)-2-[({5-[bis(4-chlorophenyl)methyl]thiophen-2-yl}carbonyl)amino]-5-(ethanimidoylamino)pentanoic acid•TFA]
50 to 500 nM | CC(=N)NCCC[C@H](NC(=O)c1ccc(C(c2cccs2)c2cccs2)s1)C(=O)O [Compound 127]
50 to 500 nM | CC(=N)NCCC[C@H](NC(=O)c1ccc(C(c2ccc(F)cc2)c2ccc(F)cc2)s1)C(=O)O [Compound 128, (2S)-2-[({5-[bis(4-fluorophenyl)methyl]thiophen-2-yl}carbonyl)amino]-5-(ethanimidoylamino)pentanoic acid•TFA]
50 to 500 nM | CC(=N)NCCC[C@H](NC(=O)c1ccc(C(c2cccc(F)c2)c2cccc(F)c2)s1)C(=O)O [Compound 129, (2S)-2-[({5-[bis(3-fluorophenyl)methyl]thiophen-2-yl}carbonyl)amino]-5-(ethanimidoylamino)pentanoic acid•TFA]
< 50 nM | CC(=N)NCCC[C@H](NC(=O)c1ccc(C(c2cccc(Cl)c2)c2cccc(Cl)c2)s1)C(=O)O [Compound 131, (2S)-2-[({5-[bis(3-chlorophenyl)methyl]thiophen-2-yl}carbonyl)amino]-5-(ethanimidoylamino)pentanoic acid•TFA]
